# Data: patent publication US10144742B2 (Millennium Pharmaceuticals, Inc., priority 2014, dated 2018)
# Where two headings read alike, the source gives them in different places.
# Experiments:
# hNAMPT protein = hNAMPT protein (Homo sapiens (Human), UniProt P43490); test: NAMPT enzyme assay (TR-FRET/HTRF, BodiPY ligand, anti 6His-Tb); assay type: binding
# How it was run: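 TR-FRET binding assay in which His-tagged human NAMPT with anti-6His-Tb is displaced by compound from a BodiPY ligand, incubated 1 h at rt in the dark. Excitation was at 320 nm, with the 520/486 nm emission ratio read. IC50 was fitted from inhibition relative to DMSO controls.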
# PC3 cells = test: PC3 growth inhibition (Cell-titer glo, 72 hours); assay type: cell-based; conditions: Homo sapiens, read-out: Percent Inhibition (PC3 growth inhibition); for inhibition at 1.667 µM: compound concentration 1.667 μM
# How it was run: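 PC3 cells in RPMI1640 seeded overnight at 37 °C, 5% CO2, then exposed to compound diluted in AIM serum-free medium for 72 h. Viability by CellTiter-Glo luminescence vs DMSO controls; single-concentration % remaining viability (1 μM or 1.667 μM), or GI50/LD50 from curves.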
# [1] = NAMPT IC50 range class, read-out: IC50
# [2] = compound concentration 1 μM, read-out: Percent Inhibition
# [3] = PC-3, compound concentration 1 μM, PC3 cells, 72 hours, Cell-titer glo
# [4] = PC-3, PC3 cells, 72 hours, Cell-titer glo
# [5] = NAMPT inhibition at compound concentration 1 μM, read-out: Percent Inhibition
# [6] = NAMPT inhibition, IC50 range class, read-out: IC50
# Sequence of hNAMPT protein (P43490 whole entry): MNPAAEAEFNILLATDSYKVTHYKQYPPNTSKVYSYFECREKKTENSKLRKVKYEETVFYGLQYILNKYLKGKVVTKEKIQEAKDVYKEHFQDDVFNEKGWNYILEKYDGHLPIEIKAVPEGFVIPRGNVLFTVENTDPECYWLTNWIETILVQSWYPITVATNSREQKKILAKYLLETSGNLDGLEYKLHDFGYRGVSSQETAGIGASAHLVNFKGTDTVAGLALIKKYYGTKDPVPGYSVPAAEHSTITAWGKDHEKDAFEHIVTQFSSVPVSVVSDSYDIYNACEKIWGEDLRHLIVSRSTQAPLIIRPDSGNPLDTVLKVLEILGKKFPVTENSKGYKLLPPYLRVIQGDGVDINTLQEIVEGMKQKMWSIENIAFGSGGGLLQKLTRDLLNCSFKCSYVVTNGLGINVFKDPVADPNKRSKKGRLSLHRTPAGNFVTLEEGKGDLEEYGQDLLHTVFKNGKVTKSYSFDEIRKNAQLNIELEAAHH
Compound,IC50 (hNAMPT protein; [1]),inhibition at 1 µM (hNAMPT protein; [2]),inhibition at 1 µM (PC3 cells; [3]),inhibition at 1.667 µM (PC3 cells; [4]),other results
"O=C(c1ccc2nc(-c3ccc(F)cc3)c(-c3ccc(F)cc3)nc2c1)N1CCOC(c2cccnc2)C1 (stereo not drawn) [Compound I-155, [2,3-bis(4-fluorophenyl)quinoxalin-6-yl][2-(pyridin-3-yl)morpholin-4-yl]methanone]",2000 to 10000 nM,12%,103%,–,–
"O=C(NCCCn1ccnc1)c1ccc2nc(-c3cccc(Cl)c3)c(-c3ccccc3)nc2c1 [Compound I-209, 2-(3-chlorophenyl)-N-[3-(1H-imidazol-1-yl)propyl]-3-phenylquinoxaline-6-carboxamide]",100 to 500 nM,74%,-7%,–,–
"O=C(NCCCc1ncc[nH]1)c1ccc2nc(-c3ccc(F)cc3)c(-c3ccc(Cl)c(C(F)(F)F)c3)nc2c1 [Compound I-369, 3-[4-chloro-3-(trifluoromethyl)phenyl]-2-(4-fluorophenyl)-N-[3-(1H-imidazol-2-yl)propyl]quinoxaline-6-carboxamide]",< 100 nM,93%,–,2%,–
"O=C(NCCCn1ccnc1)c1ccc2nc(C3=CCOCC3)c(-c3ccccc3)nc2c1 [Compound I-141, 2-(3,6-dihydro-2H-pyran-4-yl)-N-[3-(1H-imidazol-1-yl)propyl]-3-phenylquinoxaline-6-carboxamide]",100 to 500 nM,74%,-8%,–,–
"O=C(NCCCn1ccnc1)c1ccc2nc(-c3ccccc3)c(-c3cccs3)nc2c1 [Compound I-236, N-[3-(1H-imidazol-1-yl)propyl]-2-phenyl-3-(2-thienyl)quinoxaline-6-carboxamide]",< 100 nM,99%,1%,–,–
"O=C(NCCCn1ccnc1)c1ccc2nc(Nc3ccccc3)c(-c3ccccc3)nc2c1 [Compound I-233, 2-Anilino-N-[3-(1H-imidazol-1-yl)propyl]-3-phenylquinoxaline-6-carboxamide]",–,–,–,–,"IC50 (hNAMPT protein): 2000 to 10000 nM; inhibition at 1 µM (hNAMPT protein; read-out: Percent Inhibition): 43%; inhibition at 1 µM (PC3 cells; PC-3, 72 h): -8%"
"O=C(NCCCc1ncc[nH]1)c1ccc2nc(CN3CCOCC3)c(-c3ccc(F)cc3)nc2c1 [Compound I-405, 3-(4-fluorophenyl)-N-[3-(1H-imidazol-2-yl)propyl]-2-(morpholin-4-ylmethyl)quinoxaline-6-carboxamide]",–,–,–,3%,inhibition at 1 µM (hNAMPT protein; [5]): 72%; IC50 (hNAMPT protein; [6]): 100 to 500 nM
"CN(C)C1CCC(Oc2nc3ccc(C(=O)NCCCc4ncc[nH]4)cc3nc2-c2ccc(F)cc2)CC1 (stereo not drawn) [Compound I-456, 2-{[4-(dimethylamino)cyclohexyl]oxy}-3-(4-fluorophenyl)-N-[3-(1H-imidazol-2-yl)propyl]quinoxaline-6-carboxamide]",–,–,–,2%,inhibition at 1 µM (hNAMPT protein; [5]): > 99%; IC50 (hNAMPT protein; [6]): < 100 nM
"Cc1ccc(F)cc1-c1nc2cc(C(=O)NCCCc3ncc[nH]3)ccc2nc1-c1ccc(F)cc1 [Compound I-336, 3-(5-fluoro-2-methylphenyl)-2-(4-fluorophenyl)-N-[3-(1H-imidazol-2-yl)propyl]quinoxaline-6-carboxamide]",100 to 500 nM,88%,–,1%,–
"COc1ccc(Cl)c(-c2nc3cc(C(=O)NCCCc4ncc[nH]4)ccc3nc2-c2ccc(F)cc2)c1 [Compound I-354, 3-(2-chloro-5-methoxyphenyl)-2-(4-fluorophenyl)-N-[3-(1H-imidazol-2-yl)propyl]quinoxaline-6-carboxamide]",< 100 nM,97%,–,2%,–
"CC(=O)c1ccc(-c2nc3cc(C(=O)NCCCc4ncc[nH]4)ccc3nc2-c2ccc(F)cc2)s1 [Compound I-370, 3-(5-acetyl-2-thienyl)-2-(4-fluorophenyl)-N-[3-(1H-imidazol-2-yl)propyl]quinoxaline-6-carboxamide]",500 to 1000 nM,64%,–,3%,–
"CC(=O)Nc1ccc(-c2nc3ccc(C(=O)NCCCn4ccnc4)cc3nc2-c2ccccc2)cc1 [Compound I-254, 2-(4-acetamidophenyl)-N-[3-(1H-iniidazol-1-yl)propyl]-3-phenylquinoxaline-6-carboxamide]",100 to 500 nM,84%,-8%,–,–
"O=C(NCCc1nccs1)c1ccc2nc(-c3ccc(F)cc3)c(-c3ccc(F)cc3)nc2c1 [Compound I-164, 2,3-Bis(4-fluorophenyl)-N-[2-(1,3-thiazol-2-yl)ethyl]quinoxaline-6-carboxamide]",100 to 500 nM,–,101%,–,inhibition at 1 µM (hNAMPT protein; read-out: Percent Inhibition): 83%
"CC(C)(C)OC(=O)NCc1cccc(-c2nc3cc(C(=O)NCCCn4ccnc4)ccc3nc2-c2ccccc2)c1 [Compound I-85, tert-Butyl [3-(7-{[3-(1H-imidazol-1-yl)propyl]carbamoyl}-3-phenylquinoxalin-2-yl)benzyl]carbamate]",2000 to 10000 nM,–,–,–,"inhibition at 1 µM (hNAMPT protein; read-out: Percent Inhibition): 25%; inhibition at 1 µM (PC3 cells; PC-3, 72 h): 8%"
"Cn1cnc2cc(-c3nc4ccc(C(=O)NCCCn5ccnc5)cc4nc3-c3ccccc3)ccc21 [Compound I-38, N-[3-(1H-imidazol-1-yl)propyl]-2-(1-methyl-1H-benzimidazol-5-yl)-3-phenylquinoxaline-6-carboxamide]",< 100 nM,94%,-8%,–,–
"Cn1cnc2cc(-c3nc4cc(C(=O)NCCCn5ccnc5)ccc4nc3-c3ccccc3)ccc21 [Compound I-143, N-[3-(1H-imidazol-1-yl)propyl]-3-(1-methyl-1H-benzimidazol-5-yl)-2-phenylquinoxaline-6-carboxamide]",2000 to 10000 nM,3%,103%,–,–
"O=C(NCCCc1ncc[nH]1)c1ccc2nc(-c3ccc(F)cc3)c(-c3ccc(F)c(Cl)c3)nc2c1 [Compound I-502, N-(3-(1H-imidazol-2-yl)propyl)-3-(3-chloro-4-fluorophenyl)-2-(4-fluorophenyl)quinoxaline-6-carboxamide]",–,–,–,2%,inhibition at 1 µM (hNAMPT protein; [5]): 97%; IC50 (hNAMPT protein; [6]): < 100 nM
"Cn1ccc(-c2nc3cc(C(=O)NCCCn4ccnc4)ccc3nc2-c2ccccc2)n1 [Compound I-215, N-[3-(1H-imidazol-1-yl)propyl]-3-(1-methyl-1H-pyrazol-3-yl)-2-phenylquinoxaline-6-carboxamide]",2000 to 10000 nM,15%,19%,–,–
"COc1cccc(-c2nc3cc(C(=O)NCCCc4ncc[nH]4)ccc3nc2N2CCC(N3CCOCC3)CC2)c1 [Compound I-91, N-[3-(1H-imidazol-2-yl)propyl]-3-(3-methoxyphenyl)-2-[4-(morpholin-4-yl)piperidin-1-yl]quinoxaline-6-carboxamide]",< 100 nM,99%,–,2%,–
"Nc1ccc(-c2nc3cc(C(=O)NCCCc4ncc[nH]4)ccc3nc2-c2ccc(F)cc2)cc1 [Compound I-479, 3-(4-aminophenyl)-2-(4-fluorophenyl)-N-[3-(1H-imidazol-2-yl)propyl]quinoxaline-6-carboxamide]",–,–,–,3%,inhibition at 1 µM (hNAMPT protein; [5]): 75%; IC50 (hNAMPT protein; [6]): 100 to 500 nM
"CC(C)Oc1nc2ccc(C(=O)NCc3ccc4nccn4c3)cc2nc1-c1ccc(F)cc1 [Compound I-452, 3-(4-Fluorophenyl)-N-(imidazo[1,2-a]pyridin-6-ylmethyl)-2-isopropoxyquinoxaline-6-carboxamide]",–,–,–,3%,inhibition at 1 µM (hNAMPT protein; [5]): 75%; IC50 (hNAMPT protein; [6]): 100 to 500 nM
"O=C(NCCCc1ncc[nH]1)c1ccc2nc(Oc3ccccc3)c(-c3ccc(Cl)cc3)nc2c1 [Compound I-273, 3-(4-Chlorophenyl)-N-[3-(1H-imidazol-2-yl)propyl]-2-phenoxyquinoxaline-6-carboxamide]",< 100 nM,88%,–,2%,–
"CN1CCN(c2nc3cc(C(=O)NCCCn4ccnc4)ccc3nc2-c2ccccc2)CC1=O [Compound I-127, N-[3-(1H-imidazol-1-yl)propyl]-3-(4-methyl-3-oxopiperazin-1-yl)-2-phenylquinoxaline-6-carboxamide]",2000 to 10000 nM,16%,95%,–,–
"Cn1cncc1CCNC(=O)c1ccc2nc(N3CCC(N4CCOCC4)CC3)c(-c3ccc(F)cc3)nc2c1 [Compound I-82, 3-(4-Fluorophenyl)-N-[2-(1-methyl-1H-imidazol-5-yl)ethyl]-2-[4-(morpholin-4-yl)piperidin-1-yl]quinoxaline-6-carboxamide]",< 100 nM,98%,–,2%,–
"O=C(NCCCc1ncc[nH]1)c1ccc2nc(O[C@H]3CCOC3)c(-c3ccc(F)cc3)nc2c1 [Compound I-468, 3-(4-fluorophenyl)-N-[3-(1H-imidazol-2-yl)propyl]-2-[(3S)-tetrahydrofuran-3-yloxy]quinoxaline-6-carboxamide]",–,–,–,2%,inhibition at 1 µM (hNAMPT protein; [5]): 99%; IC50 (hNAMPT protein; [6]): < 100 nM
"O=C(NCCc1ncc[nH]1)c1ccc2nc(-c3ccc(F)cc3)c(-c3ccc(Cl)s3)nc2c1 [Compound I-443, N-(2-(1H-imidazol-2-yl)ethyl)-3-(5-chlorothiophen-2-yl)-2-(4-fluorophenyl)quinoxaline-6-carboxamide]",–,–,–,11%,"inhibition at 0.333 µM (hNAMPT protein; NAMPT inhibition at compound concentration 0.333 μM (data at 1 uM not available due to solubility limitations), read-out: Percent Inhibition): 57%; IC50 (hNAMPT protein; [6]): 100 to 500 nM"
